According to ChEMBL document CHEMBL3352242, “Structure-based design of substituted piperidines as a new class of highly efficacious oral direct Renin inhibitors” (ACS Med Chem Lett, 2014):
Activity calls are given as the source filed them. The calls are words filed in the database; no cut-off is given here.

Assays:
Renin [1] = molecular target: T1, Renin (Homo sapiens, UniProt P00797); assay: Inhibition of human recombinant renin using fluorescence-quenched RE(EDANS)IHPFHLVIHTK(Dabcyl)R substrate by fluorimetric assay
T1 sequence (P00797 whole entry): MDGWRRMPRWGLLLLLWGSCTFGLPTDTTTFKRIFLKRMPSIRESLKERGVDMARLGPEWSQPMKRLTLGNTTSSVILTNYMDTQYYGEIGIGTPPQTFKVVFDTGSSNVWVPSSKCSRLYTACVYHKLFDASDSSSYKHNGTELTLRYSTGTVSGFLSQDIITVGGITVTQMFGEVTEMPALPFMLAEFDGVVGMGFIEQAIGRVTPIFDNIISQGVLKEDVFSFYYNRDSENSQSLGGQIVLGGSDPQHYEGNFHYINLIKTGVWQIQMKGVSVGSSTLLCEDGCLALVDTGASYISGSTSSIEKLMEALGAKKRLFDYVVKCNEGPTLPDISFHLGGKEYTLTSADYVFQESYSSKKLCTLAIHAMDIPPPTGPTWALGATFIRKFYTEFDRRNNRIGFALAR

Renin [2] = molecular target: T1, Renin; assay: Inhibition of human recombinant renin in presence of human plasma using Ac- IHPFHL-VIHNK-(DY-505-X5)-COOH substrate by fluorimetric assay
[3] = Clearance in human liver microsomes; assay type: ADME; conditions: read-out: CLH
[4] = Clearance in rat liver microsomes; assay type: ADME; conditions: read-out: CLH
[5] = molecular target: Voltage-gated inwardly rectifying potassium channel KCNH2 (Homo sapiens, UniProt Q12809); assay: Displacement of [3H]dofetilide from human ERG expressed in HEK293 cell membranes incubated for 90 mins by beta-counting method
Sequence of Voltage-gated inwardly rectifying potassium channel KCNH2 (Q12809 whole entry): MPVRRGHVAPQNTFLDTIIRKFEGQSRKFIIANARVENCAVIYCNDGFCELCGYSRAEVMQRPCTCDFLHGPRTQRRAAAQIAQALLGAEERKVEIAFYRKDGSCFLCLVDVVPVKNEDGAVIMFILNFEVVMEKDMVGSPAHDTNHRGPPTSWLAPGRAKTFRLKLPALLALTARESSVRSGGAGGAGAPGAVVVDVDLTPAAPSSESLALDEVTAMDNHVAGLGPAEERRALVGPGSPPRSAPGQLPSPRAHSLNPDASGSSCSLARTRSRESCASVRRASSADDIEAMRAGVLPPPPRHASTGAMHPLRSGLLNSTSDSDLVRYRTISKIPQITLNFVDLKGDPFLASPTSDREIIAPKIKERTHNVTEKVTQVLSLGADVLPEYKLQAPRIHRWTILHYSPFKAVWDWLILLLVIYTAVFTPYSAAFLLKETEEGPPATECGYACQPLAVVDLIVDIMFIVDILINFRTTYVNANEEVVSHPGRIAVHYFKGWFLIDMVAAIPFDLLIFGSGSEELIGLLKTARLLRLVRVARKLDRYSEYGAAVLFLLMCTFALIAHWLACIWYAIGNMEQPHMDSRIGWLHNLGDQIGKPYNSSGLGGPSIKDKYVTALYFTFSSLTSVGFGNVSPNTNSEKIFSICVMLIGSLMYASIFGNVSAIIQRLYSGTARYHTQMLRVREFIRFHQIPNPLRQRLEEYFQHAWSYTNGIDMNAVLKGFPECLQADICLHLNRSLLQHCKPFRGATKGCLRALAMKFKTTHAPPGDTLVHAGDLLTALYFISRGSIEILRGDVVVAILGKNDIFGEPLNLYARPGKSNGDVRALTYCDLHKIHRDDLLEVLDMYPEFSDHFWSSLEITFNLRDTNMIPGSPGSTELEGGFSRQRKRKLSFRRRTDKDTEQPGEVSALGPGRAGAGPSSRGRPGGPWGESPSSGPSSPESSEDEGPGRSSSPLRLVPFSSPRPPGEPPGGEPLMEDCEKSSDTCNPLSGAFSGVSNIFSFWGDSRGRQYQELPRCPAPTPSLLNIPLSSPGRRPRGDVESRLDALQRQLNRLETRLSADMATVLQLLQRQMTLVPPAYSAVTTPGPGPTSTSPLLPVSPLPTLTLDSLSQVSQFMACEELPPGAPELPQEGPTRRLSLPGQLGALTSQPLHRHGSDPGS

[6] = Oral bioavailability in Sprague-Dawley rat at 6 mg/kg; assay type: ADME, organism-based; conditions: in vivo
[7] = Clearance in Sprague-Dawley rat at 2 mg/kg, iv; assay type: ADME, organism-based; set-up: dose 2 mg/kg, route intravenous; conditions: in vivo
[8] = Volume of distribution at steady state in Sprague-Dawley rat at 2 mg/kg, iv; assay type: ADME, organism-based; set-up: dose 2 mg/kg, route intravenous; conditions: in vivo, read-out: Vdss
[9] = Half life in Sprague-Dawley rat at 2 mg/kg, iv; assay type: ADME, organism-based; set-up: dose 2 mg/kg, route intravenous; conditions: in vivo
Rattus norvegicus [10] = assay: Dose normalized Cmax inSprague-Dawley rat at 6 mg/kg, po; assay type: ADME, organism-based, Sprague-Dawley; set-up: dose 6 mg/kg, route oral; conditions: in vivo
Rattus norvegicus [11] = assay: Dose normalized AUC (infinity) in Sprague-Dawley rat at 6 mg/kg, po; assay type: ADME, organism-based; set-up: dose 6 mg/kg, route oral; conditions: in vivo
[12] = Lipophilicity, logD of the compound at pH 6.8; assay type: physicochemical; conditions: buffer
Rattus norvegicus [13] = assay: Reduction in mean arterial pressure in human renin and human angiotensinogen double transgenic rat at 100 mg/kg, po after 42 hrs; assay type: functional, organism-based; set-up: dose 100 mg/kg; conditions: Artery
Rattus norvegicus [14] = assay: Reduction in mean arterial pressure in human renin and human angiotensinogen double transgenic rat at 1 to 100 mg/kg, po; assay type: functional, organism-based; conditions: Artery

| SMILES | IC50 (Renin [1]) [nM] | IC50 (Renin [2]) [nM] | microsomal CLint [3] [µL/min/mg] | microsomal CLint [4] [µL/min/mg] | bioavailability [6] [%] | also measured |
| --- | --- | --- | --- | --- | --- | --- |
| CCOC[C@@H](CC(C)C)NC(=O)[C@@H]1CNC[C@H](C(=O)N(c2ccc(C(C)C)c(OCCCOC)n2)C2CC2)C1 | 0.8 | 6 | 289 | 252 | – | IC50 [5]: 3300 nM |
| CCOC[C@@H](CC(C)C)NC(=O)[C@@H]1CNC[C@H](C(=O)N(c2cc(OC)c(C(C)C)cn2)C2CC2)C1.O=C(O)C(O)C(O)C(=O)O | – | – | – | – | 39 | clearance [7]: 40 mL/min/kg; Vd [8]: 4.3 L/kg; half-life [9]: 7 h; Cmax/dose (Rattus norvegicus [10]): 68 nM/mg/kg; AUC/dose (Rattus norvegicus [11]): 324 nM·h/mg/kg |
| CCOC[C@@H](CC(C)C)NC(=O)[C@@H]1CNC[C@H](C(=O)N(c2cc3c(cc2F)OC(C)(C)C(=O)N3CCCOC)C2CC2)C1.Cl | – | – | 61 | 198 | 20 | clearance [7]: 122 mL/min/kg; Vd [8]: 12 L/kg; half-life [9]: 1.9 h; Cmax/dose (Rattus norvegicus [10]): 12 nM/mg/kg; AUC/dose (Rattus norvegicus [11]): 49 nM·h/mg/kg |
| CCOC[C@@H](CC(C)C)NC(=O)[C@@H]1CNC[C@H](C(=O)N(c2cc(OC)c(C(C)C)cn2)C2CC2)[C@@H]1O [listing 1 of 2 here] | – | 2 | 22 | 142 | – | – |
| CCOC[C@@H](CC(C)C)NC(=O)[C@@H]1CNC[C@H](C(=O)N(c2cc(OCCCOC)c(C(C)C)cc2F)C2CC2)C1 | 0.3 | 2 | 115 | 214 | – | – |
| CCOC[C@@H](CC(C)C)NC(=O)[C@@H]1CNC[C@H](C(=O)N(c2cc(OC)c(C(C)C)cn2)C2CC2)C1 [listing 1 of 2 here] | – | – | – | – | – | logD [12]: 2.2 |
| CCOC[C@@H](CC(C)C)NC(=O)[C@@H]1CNC[C@H](C(=O)N(c2ccc(C(C)C)cn2)C2CC2)C1 [listing 1 of 2 here] | – | – | – | – | – | logD [12]: 4.9 |
| CCOC[C@@H](CC(C)C)NC(=O)[C@@H]1CNC[C@H](C(=O)N(c2cc(OCC)c(CC)cn2)C2CC2)C1 [listing 1 of 2 here] | – | – | – | – | – | logD [12]: 2.1 |
| CCOC[C@@H](CC(C)C)NC(=O)[C@@H]1CNC[C@H](C(=O)N(c2cc(OC)c(C(C)C)cn2)C2CC2)C1 [listing 2 of 2 here] | 0.2 | 0.4 | 15 | 101 | – | IC50 [5]: > 30000 nM |
| CCOC[C@@H](CC(C)C)NC(=O)[C@@H]1CNC[C@H](C(=O)N(c2cc(OC)c(C(C)C)cn2)C2CC2)[C@@H]1O [listing 2 of 2 here] | – | – | – | – | 61 | clearance [7]: 40 mL/min/kg; Vd [8]: 6.1 L/kg; half-life [9]: 7.7 h; Cmax/dose (Rattus norvegicus [10]): 74 nM/mg/kg; AUC/dose (Rattus norvegicus [11]): 511 nM·h/mg/kg; logD [12]: 0.93 |
| CCOC[C@@H](CC(C)C)NC(=O)[C@@H]1CNC[C@H](C(=O)N(c2cc(OCC)c(CC)cn2)C2CC2)[C@@H]1O [listing 1 of 2 here] | 0.6 | 2.5 | 22 | 54 | – | – |
| CCOC[C@@H](CC(C)C)NC(=O)[C@@H]1CNC[C@H](C(=O)N(c2cc(OCC)c(CC)cn2)C2CC2)C1.O=C(O)C(O)C(O)C(=O)O | – | – | – | – | 44 | clearance [7]: 23.3 mL/min/kg; Vd [8]: 4.6 L/kg; half-life [9]: 7.4 h; Cmax/dose (Rattus norvegicus [10]): 155 nM/mg/kg; AUC/dose (Rattus norvegicus [11]): 690 nM·h/mg/kg |
| CCOC[C@@H](CC(C)C)NC(=O)[C@@H]1CNC[C@H](C(=O)N(c2ccc(C(C)C)cn2)C2CC2)[C@@H]1O [listing 1 of 2 here] | – | – | – | – | – | Activity (Rattus norvegicus [13]): Active; Activity (Rattus norvegicus [14]): Dose-dependent effect |
| CCOC[C@@H](CC(C)C)NC(=O)[C@@H]1CNC[C@H](C(=O)N(c2cc(OCC)c(CC)cn2)C2CC2)C1 [listing 2 of 2 here] | 0.2 | – | 46 | 62 | – | IC50 [5]: > 30000 nM |
| CCOC[C@@H](CC(C)C)NC(=O)[C@@H]1CNC[C@H](C(=O)N(c2cc(OCCCOC)c(C(C)C)cn2)C2CC2)C1.Cl | 0.4 | 1 | 53 | 96 | 19 | clearance [7]: 80 mL/min/kg; Vd [8]: 11 L/kg; half-life [9]: 4.3 h; Cmax/dose (Rattus norvegicus [10]): 18 nM/mg/kg; AUC/dose (Rattus norvegicus [11]): 93 nM·h/mg/kg |
| CCOC[C@@H](CC(C)C)NC(=O)[C@@H]1CNC[C@H](C(=O)N(c2cc(OCC)c(CC)cn2)C2CC2)[C@@H]1O.O=C(O)/C=C/C(=O)O | – | – | – | – | 60 | clearance [7]: 12.3 mL/min/kg; Vd [8]: 2.6 L/kg; half-life [9]: 5.9 h; Cmax/dose (Rattus norvegicus [10]): 252 nM/mg/kg; AUC/dose (Rattus norvegicus [11]): 1630 nM·h/mg/kg |
| CCOC[C@@H](CC(C)C)NC(=O)[C@@H]1CNC[C@H](C(=O)N(c2ccc(C(C)C)cn2)C2CC2)[C@@H]1O [listing 2 of 2 here] | 0.2 | 0.6 | < 3.4 | 52 | – | IC50 [5]: > 30000 nM |
| CCOC[C@@H](CC(C)C)NC(=O)[C@@H]1CNC[C@H](C(=O)N(c2cc(OCC)c(CC)cn2)C2CC2)[C@@H]1O [listing 2 of 2 here] | – | – | – | – | – | logD [12]: 0.93 |

Continued, in another order:

| IC50 (Renin [1]) [nM] | IC50 (Renin [2]) [nM] | microsomal CLint [3] [µL/min/mg] | microsomal CLint [4] [µL/min/mg] | bioavailability [6] [%] | SMILES | also measured |
| --- | --- | --- | --- | --- | --- | --- |
| 200 | – | – | – | – | CC(C)(C)OC(=O)N[C@@H]1CNC[C@H](C(=O)N(Cc2cccc(Cl)c2Cl)C2CC2)C1 (racemic) | – |
| 1200 | 15200 | – | – | – | Cc1ccc(S(=O)(=O)N[C@@H]2CNC[C@H](C(=O)NC(c3ccccc3)c3ccccc3)C2)cc1 (racemic) | – |
| 4 | 5340 | – | – | – | CCOC[C@@H](CC(C)C)NC(=O)[C@@H]1CNC[C@H](C(=O)N(c2ccc(C(C)C)cc2)C2CC2)C1 | – |
| 2600 | – | – | – | – | Cc1ccc(S(=O)(=O)N[C@@H]2CNC[C@H](C(=O)N(Cc3cccc(Cl)c3Cl)C3CC3)C2)cc1 (racemic) | – |
| – | – | – | – | 45 | CCOC[C@@H](CC(C)C)NC(=O)[C@@H]1CNC[C@H](C(=O)N(c2ccc(C(C)C)cn2)C2CC2)C1.O=C(O)/C=C/C(=O)O | clearance [7]: 60 mL/min/kg; Vd [8]: 7.2 L/kg; half-life [9]: 6.5 h; Cmax/dose (Rattus norvegicus [10]): 63 nM/mg/kg; AUC/dose (Rattus norvegicus [11]): 296 nM·h/mg/kg |
| – | 1.1 | < 3.4 | 13 | – | CCOC[C@@H](CC(C)C)NC(=O)[C@@H]1CNC[C@H](C(=O)N(c2ccc(C(C)C)cn2)C2CC2)C1 [listing 2 of 2 here] | IC50 [5]: 7000 nM |
| 300 | – | – | – | – | COCCCn1cc(CN(C(=O)[C@H]2CNC[C@@H](NC(=O)CC(C)C)C2)C2CC2)c2ccccc21 (racemic) | – |
| 0.4 | 2 | 679 | 533 | – | COCCCn1cc(CN(C(=O)[C@H]2CNC[C@@H](C(=O)Nc3c(C)cccc3OC)C2)C2CC2)c2ccccc21 | – |
| 0.4 | 1 | 173 | 109 | < 0.1 | COCCCn1cc(CN(C(=O)[C@H]2CNC[C@@H](C(=O)N[C@H](CCO)c3ccccc3)C2)C2CC2)c2ccccc21 | – |
| 15 | 115 | – | – | – | COCCCn1cc(CN(C(=O)[C@H]2CNC[C@@H](C(=O)NCC(C)C)C2)C2CC2)c2ccccc21 (racemic) | – |
| 3 | 40 | 194 | 141 | 29 | COCCCn1cc(CN(C(=O)[C@H]2CNC[C@@H](C(=O)NCCC(C)C)C2)C2CC2)c2ccccc21 | – |
| 3 | 8 | 157 | 111 | 0.4 | COCCCn1cc(CN(C(=O)[C@H]2CNC[C@@H](C(=O)N[C@@H](CO)CC(C)C)C2)C2CC2)c2ccccc21 | – |
